The subject of series [1] is Staphylococcus aureus. Description: Antimicrobial activity against Staphylococcus aureus infected in hydrocephalic rabbit administered intraventricularly as single dose. The conditions noted are these: Cardiac ventricle.
In a further series the test system is Streptococcus pneumoniae. Description: Antimicrobial activity against penicillin-, quinolone-resistant Streptococcus pneumoniae WB4 infected in experimental rabbit meningitis model. It is filed as functional.
Series [2] relates to Listeria monocytogenes. As to the kind of experiment: Antimicrobial activity against Listeria monocytogenes isolated from cerebrospinal fluid of meningitis patient by broth dilution method. It is filed as functional.
In series [3] the test system is Listeria monocytogenes. As to the kind of experiment: Antimicrobial activity against Listeria monocytogenes isolated from cerebrospinal fluid of meningitis patient by Etest method. It is filed as functional.
For series [4], the system named is Staphylococcus aureus. As to the kind of experiment: Antimicrobial activity against methicillin-susceptible Staphylococcus aureus infected in experimental rabbit meningitis model. It is filed as functional.
The next series relates to Homo sapiens. Description: Plasma concentration in healthy human at 4 mg/kg, iv QD. The format is ADME, organism-based. Further details: dose 4 mg/kg, route intravenous. The conditions noted are these: in vivo.

Converted amounts (≈) assume the structure as drawn.

By MIC is commonly meant the least concentration at which growth counts as inhibited. Low values mean inhibition by little substance, high ones a need for much substance. Broadly, the MIC90 is an inhibitory concentration at the 90% level, which refers to growth in some studies and to a panel of isolates in others. For `CCCCCCCCCC(=O)N[C@@H](Cc1c[nH]c2ccccc12)C(=O)N[C@H](CC(N)=O)C(=O)N[C@@H](CC(=O)O)C(=O)N[C@@H]1C(=O)NCC(=O)N[C@@H](CCCN)C(=O)N[C@@H](CC(=O)O)C(=O)N[C@H](C)C(=O)N[C@@H](CC(=O)O)C(=O)NCC(=O)N[C@H](CO)C(=O)N[C@@H]([C@H](C)CC(=O)O)C(=O)N[C@@H](CC(=O)c2ccccc2N)C(=O)O[C@@H]1C`, the MIC in the series on Staphylococcus aureus [1] turned out to be 0.25 µg/mL (≈ 0.154 µM); in the series on Streptococcus pneumoniae it was 0.06 µg/mL (≈ 0.037 µM); against Staphylococcus aureus [4] it was 1 µg/mL (≈ 0.617 µM). Moreover, the MIC90 against Listeria monocytogenes [2] and with Listeria monocytogenes [3] was 4 µg/mL (≈ 2.47 µM) each time. For the same compound, in the series on Listeria monocytogenes [3], the MIC95 is 1 µg/mL (≈ 0.617 µM). Further, the Cp in the series on Homo sapiens came out at 60 µg/mL.

These data come from ChEMBL document CHEMBL1255312, “Activity of daptomycin against Listeria monocytogenes isolates from cerebrospinal fluid” (Antimicrob Agents Chemother, 2008).
